Data: article PMC6338552 (Biochemistry, 2018)

Target: JNK1/TMR-JIPtide (Homo sapiens, UniProt P45983)
Assay type: binding
Conditions: relative to apo-JNK1

JNK1/TMR-JIPtide, sequence (P45983 1-384 isoform P45983-2, species assumed): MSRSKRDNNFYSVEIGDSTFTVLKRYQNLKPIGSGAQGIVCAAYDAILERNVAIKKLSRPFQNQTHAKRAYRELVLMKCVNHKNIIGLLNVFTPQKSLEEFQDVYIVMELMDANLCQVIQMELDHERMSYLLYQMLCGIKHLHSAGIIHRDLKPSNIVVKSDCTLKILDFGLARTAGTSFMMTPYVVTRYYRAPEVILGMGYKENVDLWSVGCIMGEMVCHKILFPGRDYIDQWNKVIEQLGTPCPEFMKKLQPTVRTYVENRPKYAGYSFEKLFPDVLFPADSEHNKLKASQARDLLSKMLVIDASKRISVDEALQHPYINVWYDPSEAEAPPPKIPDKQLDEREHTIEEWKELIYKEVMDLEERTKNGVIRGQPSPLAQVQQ

## Nc1ncnc2c1ncn2[C@@H]1O[C@H](COP(=O)(O)OP(=O)(O)OP(=O)(O)O)[C@@H](O)[C@H]1O [ATP, adenosine triphosphate]
  effect of ATP-binding site ligand on JNK1 affinity for JIPtide (in words): two-fold more tightly
